The target of one assay is HCN2 (Homo sapiens (Human), UniProt Q9UL51). Description: HCN2 current assay using PatchXpress 7000A. The format is cell-based. The note with it: PatchXpress protocol; read-out: PX HCN2 IC50. Here is the method: (§1) Example 126A, Using PatchXpress 7000A
(§2) Solutions for recording HCN currents were:
The membrane voltage was then stepped back to −30 mV for a further 8 seconds.
(§3) The peak inward current measured at the end of the pulse to −110 mV (HCN1 and HCN2) or −130 mV (HCN4) was measured and any leak current subtracted to calculate the HCN current. The HCN current amplitude was measured after each control or compound addition and normalized to the control amplitude (Control A).
(§4) All experiments were performed at room temperature (approximately 22° C.).
(§5) Each test compound concentration was applied to the cell for seven (7) minutes, at which point the next cumulative concentration was applied.

The target of another assay is HCN4 (Homo sapiens (Human), UniProt Q9Y3Q4). Description: HCN4 current assay using PatchXpress 7000A. Type of assay: cell-based. The note with it: PatchXpress protocol; read-out: PX HCN4 IC50. As to the method: as §1, §2, §3, §4, §5
Sequence of HCN4 (Q9Y3Q4 whole entry, species assumed): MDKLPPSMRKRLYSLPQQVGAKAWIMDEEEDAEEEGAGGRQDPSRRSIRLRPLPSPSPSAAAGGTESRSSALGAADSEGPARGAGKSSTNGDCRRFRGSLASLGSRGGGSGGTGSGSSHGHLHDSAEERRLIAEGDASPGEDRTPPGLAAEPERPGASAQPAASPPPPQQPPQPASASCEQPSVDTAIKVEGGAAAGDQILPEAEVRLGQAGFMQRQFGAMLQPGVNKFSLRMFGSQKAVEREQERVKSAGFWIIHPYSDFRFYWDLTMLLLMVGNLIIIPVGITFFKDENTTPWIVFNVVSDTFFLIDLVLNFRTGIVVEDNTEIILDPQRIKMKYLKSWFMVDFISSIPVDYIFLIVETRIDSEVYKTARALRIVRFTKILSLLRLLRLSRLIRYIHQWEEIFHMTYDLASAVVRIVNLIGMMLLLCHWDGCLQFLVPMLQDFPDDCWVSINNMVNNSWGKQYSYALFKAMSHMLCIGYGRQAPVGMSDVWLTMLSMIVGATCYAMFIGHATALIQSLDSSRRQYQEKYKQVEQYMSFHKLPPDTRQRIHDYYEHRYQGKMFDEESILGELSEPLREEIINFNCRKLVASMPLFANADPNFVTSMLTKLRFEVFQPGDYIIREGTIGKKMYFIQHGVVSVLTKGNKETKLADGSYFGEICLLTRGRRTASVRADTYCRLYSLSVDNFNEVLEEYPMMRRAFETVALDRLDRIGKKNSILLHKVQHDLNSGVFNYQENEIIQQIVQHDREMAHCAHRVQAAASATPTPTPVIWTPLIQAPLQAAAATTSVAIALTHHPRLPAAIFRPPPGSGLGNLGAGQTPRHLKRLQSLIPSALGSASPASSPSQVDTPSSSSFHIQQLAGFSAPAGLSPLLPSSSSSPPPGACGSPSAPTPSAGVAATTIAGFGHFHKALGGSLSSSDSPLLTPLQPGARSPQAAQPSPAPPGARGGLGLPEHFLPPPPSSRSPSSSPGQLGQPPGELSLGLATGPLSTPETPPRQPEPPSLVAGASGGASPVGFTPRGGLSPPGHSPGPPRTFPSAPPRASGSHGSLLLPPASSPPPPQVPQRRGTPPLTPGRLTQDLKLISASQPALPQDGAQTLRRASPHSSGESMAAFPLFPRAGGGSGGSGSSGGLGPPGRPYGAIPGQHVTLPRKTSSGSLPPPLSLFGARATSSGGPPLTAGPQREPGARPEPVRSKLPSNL

Counter-ions that a name gives are not always drawn.

Sequence of HCN2 (Q9UL51 whole entry): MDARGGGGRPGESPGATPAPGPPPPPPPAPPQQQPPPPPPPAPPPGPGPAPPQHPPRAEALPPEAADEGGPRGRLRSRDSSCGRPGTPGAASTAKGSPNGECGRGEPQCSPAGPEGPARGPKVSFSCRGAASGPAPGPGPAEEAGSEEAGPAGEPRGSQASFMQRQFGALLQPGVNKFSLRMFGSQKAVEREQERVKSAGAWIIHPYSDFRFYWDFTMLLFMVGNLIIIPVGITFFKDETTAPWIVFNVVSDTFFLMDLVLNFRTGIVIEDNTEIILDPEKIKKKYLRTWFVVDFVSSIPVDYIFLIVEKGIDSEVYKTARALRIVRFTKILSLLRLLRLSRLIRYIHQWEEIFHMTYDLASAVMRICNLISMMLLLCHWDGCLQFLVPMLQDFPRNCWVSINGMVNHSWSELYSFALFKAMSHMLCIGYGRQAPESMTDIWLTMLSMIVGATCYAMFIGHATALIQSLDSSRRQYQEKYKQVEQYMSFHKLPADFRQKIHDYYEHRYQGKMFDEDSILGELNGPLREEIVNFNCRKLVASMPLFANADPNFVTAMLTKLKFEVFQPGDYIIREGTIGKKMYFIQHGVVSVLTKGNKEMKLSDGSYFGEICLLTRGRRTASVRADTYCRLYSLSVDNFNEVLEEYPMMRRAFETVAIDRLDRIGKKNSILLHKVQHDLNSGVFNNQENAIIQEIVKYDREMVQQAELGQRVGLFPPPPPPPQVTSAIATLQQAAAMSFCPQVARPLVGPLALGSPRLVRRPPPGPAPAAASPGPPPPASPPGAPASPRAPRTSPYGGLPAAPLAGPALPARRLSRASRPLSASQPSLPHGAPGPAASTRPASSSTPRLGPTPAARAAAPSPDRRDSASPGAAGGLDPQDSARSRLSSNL

For orientation: IC50 means the concentration needed to halve the response being measured. Regarding `NC(=O)c1cccc(C[C@H](N)c2ccccc2-c2noc3ccccc23)n1` [Example 104, (S)-6-{2-Amino-2-[2-(benzo[d]isoxazol-3-yl)phenyl]ethyl}pyridine-2-carboxamide hydrochloride], the results for the IC50 at HCN2 and at HCN4 were 2.6 µM and 10.4 µM, respectively.
In the same order, the values of `Cc1cccc(C[C@H](N)c2ccccc2-c2noc3cc(C#N)ccc23)n1` [Example 96, (S)-1-[2-(6-Cyanobenzo[d]isoxazol-3-yl)phenyl]-2-(6-methylpyridine-2-yl)ethan-1-amine] are 2.9 µM and > 30 µM.
In the same order, the values of `CNC(=O)Nc1cccc(C[C@H](N)c2ccccc2-c2noc3ccccc23)n1` [Example 122, (S)-1-(6-{2-Amino-2-[2-(benzo[d]isoxazol-3-yl)phenyl]ethyl}pyridine-2-yl)-3-methylurea hydrochloride] are 9.5 µM and 28.1 µM.
In the same order, the values of `N[C@@H](Cc1cccc(C(O)CO)n1)c1ccccc1-c1noc2ccccc12` (stereo partly drawn) [Example 41, 1-(6-{(S)-2-Amino-2-[2-(benzo[d]isoxazol-3-yl)phenyl]ethyl}pyridine-2-yl)ethan-1,2-diol hydrochloride] are 14.1 µM and > 30 µM.
Regarding `C#Cc1ccc2c(-c3ccccc3[C@@H](N)Cc3ccccn3)noc2c1` [Example 31, (S)-1-[2-(6-Ethynylbenzo[d]isoxazol-3-yl)phenyl]-2-(pyridine-2-yl)ethan-1-amine hydrochloride], the values for the 50% inhibitory concentration (IC50) at HCN2 and at HCN4 were 1.6 µM and 6.7 µM, respectively.
In the same order, the values of `CNC(=O)c1cccc(C[C@H](N)c2ccccc2-c2noc3ccccc23)n1` [Example 105, (S)-6-{2-Amino-2-[2-(benzo[d]isoxazol-3-yl)phenyl]ethyl}-N-methylpyridine-2-carboxamide hydrochloride] are 4.2 µM and 6.2 µM.
Turning to `COc1ccc(-c2noc3ccccc23)c([C@@H](N)Cc2ccccn2)c1` [Example 82, (S)-1-[2-(Benzo[d]isoxazol-3-yl)-5-methoxyphenyl]-2-(pyridine-2-yl)ethan-1-amine hydrochloride], the IC50 on HCN2 came out at 26.6 µM.
Same read-out and setting: in the case of `Cc1cc(C#N)cnc1C[C@H](N)c1ccccc1-c1noc2ccccc12` [Example 80, (S)-1-[2-(Benzo[d]isoxazol-3-yl)phenyl]-2-(3-methyl-5-cyanopyridin-2-yl)ethan-1-amine] it was 1.9 µM; in that of `N#Cc1cccc(C[C@H](N)c2ccccc2-c2noc3cc(Br)ccc23)n1` [Example 120, (S)-{2-Amino-[2-(6-bromobenzo[d]isoxazol-3-yl)phenyl]ethyl}-6-cyanopyridine], 1.6 µM; in that of `N[C@@H](Cc1ccccn1)c1ccccc1-c1noc2cc(C#CCO)ccc12` [Example 32, (S)-1-[2-(6-[3-Hydroxyprop-1-yn-1-yl]benzo[d]isoxazol-3-yl)phenyl]-2-(pyridine-2-yl)ethan-1-amine hydrochloride], 8.5 µM.
Same read-out and setting: the value for `CC(=O)Nc1cccnc1C[C@H](N)c1ccccc1-c1noc2ccccc12` [Example 76, (S)—N-(2-{2-Amino-2-[2-(benzo[d]isoxazol-3-yl)phenyl]ethyl}pyridin-3-yl)acetamide hydrochloride] was 8.7 µM; that for `N#Cc1ccc(-c2noc3ccccc23)c([C@@H](N)Cc2ccccn2)c1` [Example 37, (S)-1-[2-(Benzo[d]isoxazol-3-yl)-5-cyanophenyl]-2-(pyridine-2-yl)ethan-1-amine hydrochloride] was 14 µM; that for `N[C@@H](Cc1ccccn1)c1ccc(Br)cc1-c1noc2ccccc12` [Example 85, (S)-1-[2-(Benzo[d]isoxazol-3-yl)-4-bromophenyl]-2-(pyridine-2-yl)ethan-1-amine] was 13 µM.
As to `N[C@@H](Cc1ncccc1C1CC1)c1ccccc1-c1noc2ccccc12` [Example 79, (S)-1-[2-(Benzo[d]isoxazol-3-yl)phenyl]-2-(3-cyclopropylpyridin-2-yl)ethan-1-amine formate], the half-inhibitory concentration (IC50) at HCN2 was 4.9 µM.
Same read-out and setting: the value for `Cc1ccc(C(=O)N(C)C)nc1C[C@H](N)c1ccccc1-c1noc2ccccc12` [Example 8, (S)-6-{2-Amino-2-[2-(benzo[d]isoxazol-3-yl)phenyl]ethyl}-N,N,5-trimethylpyridine-2-carboxamide] was 2.5 µM; that for `N[C@@H](Cc1ccccn1)c1ccccc1-c1noc2ccc(Br)cc12` [Example 113, (S)-1-[2-(5-Bromobenzo[d]isoxazol-3-yl)phenyl]-2-(pyridine-2-yl)ethan-1-amine hydrochloride] was 22.9 µM; that for `CC(c1ccccn1)C(N)c1ccccc1-c1noc2ccccc12` (single isomer, unassigned; diastereomer 1) [Example 1, 1-[2-(Benzo[d]isoxazol-3-yl)phenyl]-2-(pyridin-2-yl)propan-1-amine hydrochloride (diastereomer 1)] was 7.4 µM.
Take `N[C@@H](Cc1cccc(N2CC[C@H](O)C2)n1)c1ccccc1-c1noc2ccccc12` [Example 53, (S)-1-(6-{(S)-2-Amino-2-[2-(benzo[d]isoxazol-3-yl)phenyl]ethyl}pyridine-2-yl)pyrrolidin-3-ol hydrochloride]: on HCN2, the IC50 worked out at 6.2 µM.
On the same count and under the same terms, in the case of `N[C@@H](Cc1ccccn1)c1cccc(Br)c1-c1noc2ccccc12` [Example 86, (S)-1-[2-(Benzo[d]isoxazol-3-yl)-3-bromophenyl]-2-(pyridine-2-yl)ethan-1-amine hydrochloride] it was 17.4 µM.
As to `CC[C@H](c1ccccn1)[C@H](N)c1ccccc1-c1noc2ccccc12` [Example 45, (1S,2S)-1-[2-(Benzo[d]isoxazol-3-yl)phenyl]-2-(pyridin-2-yl)butan-1-amine hydrochloride], on HCN2, the IC50 was determined as 22.1 µM.
Still for that read-out and setting: in the case of `CS(=O)(=O)c1nc(C[C@H](N)c2ccccc2-c2noc3ccccc23)ccc1F` [Example 7, (S)-1-[2-(Benzo[d]isoxazol-3-yl)phenyl]-2-(5-fluoro-6-methylsulfonylpyridine-2-yl)ethan-1-amine hydrochloride] it was 5.7 µM.
`CC(O)c1ccc2c(-c3ccccc3[C@@H](N)Cc3ccccn3)noc2c1` (stereo partly drawn) [Example 35, (S)-1-[2-(6-[1-Hydroxyethyl]benzo[d]isoxazol-3-yl)phenyl]-2-(pyridine-2-yl)ethan-1-amine]: the IC50 at HCN2 was 8.9 µM.
Still for that read-out and setting: the value for `N[C@@H](Cc1ccccn1)c1ccccc1-c1noc2cc(C3CC3)ccc12` [Example 34, (S)-1-[2-(6-Cyclopropylbenzo[d]isoxazol-3-yl)phenyl]-2-(pyridine-2-yl)ethan-1-amine] was 16.7 µM.
As to `N[C@@H](Cc1ccccn1)c1ccccc1-c1noc2cccc(Br)c12` [Example 43, (S)-1-[2-(4-Bromobenzo[d]isoxazol-3-yl)phenyl]-2-(pyridine-2-yl)ethan-1-amine hydrochloride], the half-inhibitory concentration (IC50) on HCN2 is 16 µM.
Still for that read-out and setting: the value for `COc1cccc(C[C@H](N)c2ccccc2-c2noc3ccccc23)n1` [Example 115, (S)-1-[2-(Benzo[d]isoxazol-3-yl)phenyl]-2-(6-methoxypyridine-2-yl)ethan-1-amine hydrochloride] was 0.69 µM; that for `Cc1ccc([C@@H](N)Cc2ccccn2)c(-c2noc3ccccc23)c1` [Example 38, (S)-1-[2-(Benzo[d]isoxazol-3-yl)-4-methylphenyl]-2-(pyridine-2-yl)ethan-1-amine hydrochloride] was 13 µM.
